Where two headings read alike, the source gives them in different places.
How the values were obtained:
[1] = molecular target: T1, NMDAR2A (Homo sapiens, UniProt Q12879); assay: NMDAR agonist assay, [3H]MK-801 binding, NMDAR2A expressing HEK cell membranes; assay type: biochemical; conditions: 50 μM glutamate; for EC50: read-out: NMDAR2A B: log EC50 (converted)
T1 construct: expressed in transfected cells; host or cells: HEK cells (membrane extract)
Method in brief: (§1)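 Membranes from HEK cells (300 μg protein) preincubated 15 min with 50 μM glutamate plus compound (1×10^−15–1×10^−7 M) or 1 mM glycine, then with 0.3 μCi [3H]MK-801 for 15 min at 25° C. (nonequilibrium); filter-bound DPM, baseline-subtracted, expressed as % of 1 mM glycine; EC50 and % maximum from three-parameter fit.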

[2] = molecular target: T2, NMDAR2D (Homo sapiens, UniProt O15399+Q05586); assay: NMDAR agonist assay, [3H]MK-801 binding, NMDAR2D expressing HEK cell membranes; assay type: biochemical; conditions: 50 μM glutamate; read-out: NMDAR2D B: log EC50 (converted)
T2 construct: expressed in transfected cells; host or cells: HEK cells (membrane extract)
Procedure: (§2) Assays were conducted as described by Moskal et al., “GLYX-13: a monoclonal antibody-derived peptide that acts as an N-methyl-D-aspartate receptor modulator,” Neuropharmacology, 49, 1077-87, 2005. These studies were designed to determine if the test compounds act to facilitate NMDAR activation in NMDAR2A, NMDAR2B, NMDAR2C or NMDAR2D expressing HEK cell membranes as measured by increases in [^3H]MK-801 binding.
(§3) In the assay, 300 μg of NMDAR expressing HEK cell membrane extract protein was preincubated for 15 minutes at […] in the presence of saturating concentrations of glutamate (50 μM) and varying concentrations of test compound (1×10^−15M-1×10^−7M), or 1 mM glycine. Following the addition of 0.3 μCi of [3H]MK-801 (22.5 Ci/mmol), reactions were again incubated for 15 minutes at 25° C. (nonequilibrium conditions). Bound and free [3H]MK-801 were separated via rapid filtration using a Brandel apparatus.
(§4) In analyzing the data, the DPM (disintegrations per minute) of [3H]MK-801 remaining on the filter were measured for each concentration of test compound or for 1 mM glycine. The DPM values for each concentration of a ligand (N=2) were averaged. The baseline value was determined from the best fit curve of the DPM values modeled using the GraphPad program and the log(agonist) vs. response (three parameters) algorithm was then subtracted from all points in the dataset. The % maximal [^3H]MK-801 binding was then calculated relative to that of 1 mM glycine: all baseline subtracted DPM values were divided by the average value for 1 mM glycine. The EC50 and % maximal activity were then obtained from the best fit curve of the % maximal [3H]MK-801 binding data modelled using the GraphPad program and the log(agonist) vs. response (three parameters) algorithm.
(§5) The tables below summarize the results for the wild type […] NMDAR2A, NMDAR2B, NMDAR2C, and NMDAR2D, and whether the compound is not an agonist (−), is an agonist (+), or is a strong agonist (++), where column A is based on the % maximal [3H]MK-801 binding relative to 1 mM glycine (−=0; <100%=+; and >100%=++); and column B is based on log EC50 values (0=−; ≥1×10^−9 M (e.g., −8)=+; and <1×10^−9 M (e.g., −10)=++).

[3] = molecular target: T3, NMDAR2D (Homo sapiens, UniProt O15399); assay: as above; assay type: biochemical; conditions: 50 μM glutamate
T3 construct: expressed in transfected cells; host or cells: HEK cells (membrane extract)
Procedure: as §2, §3, §4, §5

[4] = Microsomal stability (Human); assay type: in vitro ADME; conditions: after 60 minutes
Procedure: (§6) Microsomal stability of disclosed compounds was investigated. The following table indicates the percent of compound remaining after 60 minutes.

[5] = Plasma stability (Human); assay type: in vitro ADME; conditions: after 60 minutes
Procedure: (§7) Plasma stability of disclosed compounds was investigated. The following table indicates the percent of compound remaining after 60 minutes.

[6] = molecular target: T4, NMDAR2C (Homo sapiens, UniProt Q14957); assay: NMDAR agonist assay, [3H]MK-801 binding, NMDAR2C expressing HEK cell membranes; assay type: biochemical; conditions: 50 μM glutamate
T4 construct: expressed in transfected cells; host or cells: HEK cells (membrane extract)
Procedure: as §2, §3, §4, §5

[7] = Microsomal stability (Rat); assay type: in vitro ADME; conditions: after 60 minutes
Procedure: as §6

[8] = IV pharmacokinetics in Sprague Dawley rats; assay type: in vivo; conditions: rat, 2 mg/kg, normal saline
Procedure: Sprague Dawley rats were dosed intravenously using a normal saline formulation containing 2 mg/kg of the compounds identified in the below table. The table below summarizes the results of the IV pharmacokinetics.

[9] = molecular target: T5, NMDAR2B (Homo sapiens, UniProt Q13224); assay: NMDAR agonist assay, [3H]MK-801 binding, NMDAR2B expressing HEK cell membranes; assay type: biochemical; conditions: 50 μM glutamate; for EC50: read-out: NMDAR2B B: log EC50 (converted)
T5 construct: expressed in transfected cells; host or cells: HEK cells (membrane extract)
Method in brief: as §1

[10] = Plasma stability (Rat); assay type: in vitro ADME; conditions: after 60 minutes
Procedure: as §7

[11] = Oral pharmacokinetics in Sprague Dawley rats (plasma, brain, CSF); assay type: in vivo; conditions: rat
Procedure: In another experiment, Sprague Dawley rats were dosed per os (oral gavage) using a normal saline formulation containing 10 mg/kg of the compounds identified in the table below. Plasma, brain, and CSF samples were analyzed at various time points over a 24 hour period. The table below summarizes the results of the oral pharmacokinetics, where the first three values (Tmax, Cmax and AUClast) are plasma values.

[12] = system: Sprague Dawley rats; assay: Porsolt forced swim test; assay type: in vivo; conditions: 0.1 mg/kg
Procedure: A non-clinical in vivo pharmacology study (Porsolt assay) was performed to measure antidepressant-like effects. The study allowed for the evaluation of the effects of each compound on the Porsolt forced swim test as assessed by the rats' response (reduced floating time) during a 5-minute swimming test.
Male 2-3 month old Sprague Dawley rats were used (Harlan, Indianapolis, Ind.). Rats were housed in Lucite cages with aspen wood chip bedding, maintained on a 12:12 light:dark cycle (lights on at 5 AM), and given ad libitum access to Purina lab chow (USA) and tap water throughout the study.
The Porsolt forced swim test adapted for use in rats was performed as described by Burgdorf et al., (The long-lasting antidepressant effects of rapastinel (GLYX-13) are associated with a metaplasticity process in the medial prefrontal cortex and hippocampus. Neuroscience 308:202-211, 2015). Animals were placed in a 46 cm tall×20 cm in diameter clear glass tube filled to 30 cm with tap water (23±1° C.) for 15 min on the first day (habituation) and 5 min on the subsequent test day. Animals were tested 1 h or 24 h post-dosing with the test compounds or vehicle control (0.5% sodium carboxymethyl cellulose in 0.9% sterile saline). A subset of compounds tested at 1 h post-dosing was tested again 1 wk post-dosing. Animals received a 15 min habituation session 1 day before the first 5 min test. Water was changed after every other animal. Animals were videotaped, and floating time as defined as the minimal amount of effort required to keep the animals head above water was scored offline by a blinded experimenter with high inter-rater reliability (Pearson's r >0.9).

T5 sequence (Q13224 27-1484, species assumed, other chains not shown): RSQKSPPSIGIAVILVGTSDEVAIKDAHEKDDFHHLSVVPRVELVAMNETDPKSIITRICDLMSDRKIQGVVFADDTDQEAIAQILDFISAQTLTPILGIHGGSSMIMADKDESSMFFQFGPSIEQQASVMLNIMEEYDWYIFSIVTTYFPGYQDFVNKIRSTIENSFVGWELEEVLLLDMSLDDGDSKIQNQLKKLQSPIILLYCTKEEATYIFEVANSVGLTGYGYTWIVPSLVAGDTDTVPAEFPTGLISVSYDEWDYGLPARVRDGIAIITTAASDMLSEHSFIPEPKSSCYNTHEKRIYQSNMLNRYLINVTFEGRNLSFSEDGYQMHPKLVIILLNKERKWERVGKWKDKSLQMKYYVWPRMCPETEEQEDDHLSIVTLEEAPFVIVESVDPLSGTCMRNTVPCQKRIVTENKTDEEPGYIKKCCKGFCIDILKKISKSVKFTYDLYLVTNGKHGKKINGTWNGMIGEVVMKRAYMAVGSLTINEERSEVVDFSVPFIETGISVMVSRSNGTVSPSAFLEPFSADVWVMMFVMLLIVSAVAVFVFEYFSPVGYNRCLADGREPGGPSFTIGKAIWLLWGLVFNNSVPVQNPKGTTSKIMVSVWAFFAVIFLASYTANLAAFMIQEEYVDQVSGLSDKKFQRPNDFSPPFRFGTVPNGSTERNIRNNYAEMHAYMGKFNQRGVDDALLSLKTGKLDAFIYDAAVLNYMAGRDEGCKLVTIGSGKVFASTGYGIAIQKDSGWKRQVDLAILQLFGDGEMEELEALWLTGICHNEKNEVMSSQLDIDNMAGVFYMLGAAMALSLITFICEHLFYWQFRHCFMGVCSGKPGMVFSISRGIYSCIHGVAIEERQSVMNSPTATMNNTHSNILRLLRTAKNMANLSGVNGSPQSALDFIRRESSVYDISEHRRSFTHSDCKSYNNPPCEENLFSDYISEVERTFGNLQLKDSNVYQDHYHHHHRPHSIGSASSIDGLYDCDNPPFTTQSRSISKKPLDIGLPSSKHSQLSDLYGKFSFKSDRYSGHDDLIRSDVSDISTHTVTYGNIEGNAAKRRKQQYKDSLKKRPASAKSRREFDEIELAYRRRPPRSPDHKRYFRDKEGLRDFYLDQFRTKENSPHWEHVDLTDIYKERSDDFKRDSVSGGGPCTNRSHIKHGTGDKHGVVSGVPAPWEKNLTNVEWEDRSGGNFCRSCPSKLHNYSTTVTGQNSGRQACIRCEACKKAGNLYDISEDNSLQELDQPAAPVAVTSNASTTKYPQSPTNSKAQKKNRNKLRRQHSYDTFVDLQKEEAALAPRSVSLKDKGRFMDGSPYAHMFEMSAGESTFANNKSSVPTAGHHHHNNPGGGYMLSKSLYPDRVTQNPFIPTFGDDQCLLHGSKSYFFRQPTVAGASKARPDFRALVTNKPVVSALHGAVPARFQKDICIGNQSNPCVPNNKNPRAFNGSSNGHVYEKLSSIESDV
T1 sequence (Q12879 23-1464, species assumed, other chains not shown): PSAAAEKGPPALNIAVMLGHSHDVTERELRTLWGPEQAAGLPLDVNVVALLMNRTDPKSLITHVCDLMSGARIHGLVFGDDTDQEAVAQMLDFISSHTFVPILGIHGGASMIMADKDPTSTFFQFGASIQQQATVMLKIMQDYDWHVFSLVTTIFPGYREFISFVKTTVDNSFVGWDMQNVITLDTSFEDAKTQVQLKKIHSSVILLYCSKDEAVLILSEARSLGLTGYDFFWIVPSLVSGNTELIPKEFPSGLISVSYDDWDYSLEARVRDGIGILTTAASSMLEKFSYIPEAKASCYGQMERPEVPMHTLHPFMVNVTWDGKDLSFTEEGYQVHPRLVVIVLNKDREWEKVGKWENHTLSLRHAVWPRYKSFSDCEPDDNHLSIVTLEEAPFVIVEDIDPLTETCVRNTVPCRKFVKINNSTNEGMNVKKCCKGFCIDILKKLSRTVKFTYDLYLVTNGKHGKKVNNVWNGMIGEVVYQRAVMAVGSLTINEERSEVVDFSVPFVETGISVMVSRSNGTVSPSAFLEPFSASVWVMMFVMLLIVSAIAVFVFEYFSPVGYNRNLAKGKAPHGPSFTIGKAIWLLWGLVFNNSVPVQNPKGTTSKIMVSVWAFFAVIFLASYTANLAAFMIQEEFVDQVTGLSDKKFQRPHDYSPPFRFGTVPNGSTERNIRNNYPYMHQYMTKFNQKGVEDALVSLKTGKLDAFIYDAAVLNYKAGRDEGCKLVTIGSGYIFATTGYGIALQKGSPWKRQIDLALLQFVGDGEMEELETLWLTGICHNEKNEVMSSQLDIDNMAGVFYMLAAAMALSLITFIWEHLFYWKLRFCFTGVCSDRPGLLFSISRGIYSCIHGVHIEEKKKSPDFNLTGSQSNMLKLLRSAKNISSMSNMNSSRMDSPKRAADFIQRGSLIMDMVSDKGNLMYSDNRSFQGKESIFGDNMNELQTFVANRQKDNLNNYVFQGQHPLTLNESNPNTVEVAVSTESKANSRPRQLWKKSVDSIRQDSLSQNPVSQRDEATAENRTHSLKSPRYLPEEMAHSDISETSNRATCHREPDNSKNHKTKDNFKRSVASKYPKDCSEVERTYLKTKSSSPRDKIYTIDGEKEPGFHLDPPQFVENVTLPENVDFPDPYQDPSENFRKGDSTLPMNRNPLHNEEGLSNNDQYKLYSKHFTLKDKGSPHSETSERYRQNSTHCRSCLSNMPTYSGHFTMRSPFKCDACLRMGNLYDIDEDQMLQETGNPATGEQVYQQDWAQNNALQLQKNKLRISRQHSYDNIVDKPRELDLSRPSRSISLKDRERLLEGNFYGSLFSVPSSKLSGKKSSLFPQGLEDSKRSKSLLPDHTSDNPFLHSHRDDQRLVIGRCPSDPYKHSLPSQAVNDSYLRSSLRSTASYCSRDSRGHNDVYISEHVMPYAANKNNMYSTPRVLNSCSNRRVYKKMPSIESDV
T3 sequence (O15399 28-1336, species assumed, other chains not shown): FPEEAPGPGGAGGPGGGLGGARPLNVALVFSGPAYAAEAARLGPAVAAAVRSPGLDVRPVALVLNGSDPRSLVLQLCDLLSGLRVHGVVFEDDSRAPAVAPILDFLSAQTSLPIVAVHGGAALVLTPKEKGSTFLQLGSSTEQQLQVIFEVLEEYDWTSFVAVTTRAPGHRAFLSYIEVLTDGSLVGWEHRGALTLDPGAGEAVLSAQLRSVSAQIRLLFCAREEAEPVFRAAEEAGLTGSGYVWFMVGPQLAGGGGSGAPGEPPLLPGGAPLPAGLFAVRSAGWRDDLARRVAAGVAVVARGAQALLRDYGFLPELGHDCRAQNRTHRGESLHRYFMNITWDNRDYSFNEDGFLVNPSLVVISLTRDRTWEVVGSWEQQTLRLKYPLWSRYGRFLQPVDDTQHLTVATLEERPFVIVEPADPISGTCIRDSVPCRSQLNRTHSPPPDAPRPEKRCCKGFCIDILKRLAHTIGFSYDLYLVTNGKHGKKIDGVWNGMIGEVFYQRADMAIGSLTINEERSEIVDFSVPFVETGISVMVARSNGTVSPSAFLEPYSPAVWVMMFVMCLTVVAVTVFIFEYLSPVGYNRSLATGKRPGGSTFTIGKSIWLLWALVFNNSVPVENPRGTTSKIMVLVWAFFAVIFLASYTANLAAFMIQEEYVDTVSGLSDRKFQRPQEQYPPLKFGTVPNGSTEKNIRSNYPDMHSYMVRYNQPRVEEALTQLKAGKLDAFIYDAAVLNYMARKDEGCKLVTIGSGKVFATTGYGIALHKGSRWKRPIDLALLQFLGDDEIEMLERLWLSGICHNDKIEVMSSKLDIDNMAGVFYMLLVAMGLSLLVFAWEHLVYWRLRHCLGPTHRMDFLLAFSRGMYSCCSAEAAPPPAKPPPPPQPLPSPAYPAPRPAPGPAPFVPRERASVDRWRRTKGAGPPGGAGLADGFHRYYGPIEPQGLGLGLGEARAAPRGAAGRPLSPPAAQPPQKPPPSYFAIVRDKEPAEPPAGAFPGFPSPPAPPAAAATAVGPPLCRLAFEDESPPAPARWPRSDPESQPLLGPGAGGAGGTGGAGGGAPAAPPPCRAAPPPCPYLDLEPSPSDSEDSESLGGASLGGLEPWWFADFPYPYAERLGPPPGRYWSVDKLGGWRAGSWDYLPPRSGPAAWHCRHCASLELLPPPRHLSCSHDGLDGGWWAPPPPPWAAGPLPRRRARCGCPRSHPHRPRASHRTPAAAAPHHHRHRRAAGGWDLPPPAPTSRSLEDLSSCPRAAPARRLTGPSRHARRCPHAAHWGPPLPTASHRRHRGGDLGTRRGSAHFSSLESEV
T2 sequence (O15399 28-1336, species assumed, other chains not shown): as above

CC(C)(C)OC(=O)N1CCCCCC12CNC2=O (single isomer, unassigned) [EI-1, tert-butyl 1-oxo-2,5-diazaspiro[3.6]decane-5-carboxylate]
EC50 [1]: < 1 nM | Emax ([1]; 0.25 h, relative to 1 mM glycine, read-out: NMDAR2A A: % maximal [3H]MK-801 binding relative to 1 mM glycine): < 100% | EC50 [2]: < 1 nM | NMDAR2D A: % maximal [3H]MK-801 binding relative to 1 mM glycine [3]: + (<100%=+)

CC(C)(C)OC(=O)N1CCCC12CCCNC2=O (single isomer, unassigned) [EV-2, tert-butyl 6-oxo-1,7-diazaspiro[4.5]decane-1-carboxylate]
EC50 [1]: < 1 nM | NMDAR2A A: % maximal [3H]MK-801 binding relative to 1 mM glycine ([1]; relative to 1 mM glycine): + (<100%=+) | Microsomal (Human): percent of compound remaining [4]: 79% | Plasma (Human): percent of compound remaining [5]: 100% | EC50 ([6]; read-out: NMDAR2C B: log EC50 (converted)): < 1 nM | NMDAR2C A: % maximal [3H]MK-801 binding relative to 1 mM glycine ([6]; relative to 1 mM glycine): + (<100%=+) | Microsomal (Rat): percent of compound remaining [7]: 91% | EC50 ([3]; read-out: NMDAR2D B: log EC50 (converted)): < 1 nM | NMDAR2D A: % maximal [3H]MK-801 binding relative to 1 mM glycine [3]: + (<100%=+) | AUClast [8]: 1138.1 ng·h/mL | Cl [8]: 28.4 mL/min/kg | Cmax [8]: 2608.4 ng/mL | T1/2 [8]: 24.6 min | Vss [8]: 0.88 L/kg | EC50 [9]: < 1 nM | NMDAR2B A: % maximal [3H]MK-801 binding relative to 1 mM glycine ([9]; relative to 1 mM glycine): + (<100%=+) | Plasma (Rat): percent of compound remaining [10]: 79% | % F ([11]; per os 10 mg/kg): 63% | CSF Cmax ([11]; per os, 10 mg/kg): 2324.1 ng/mL | Brain Cmax ([11]; per os, 10 mg/kg): 1213 ng/mL | AUC(0-last) ([11]; per os, 10 mg/kg, plasma): 3567.9 ng·h/mL | Cmax ([11]; per os, 10 mg/kg, plasma): 4346 ng/mL | Tmax ([11]; per os, 10 mg/kg, plasma): 15 min | % reduction in float time ([12]; 1 h post-dose): 84% | Significance vs. vehicle ([12]; 1 h post-dose): Yes | % reduction in float time ([12]; 24 h post-dose): 76% | Significance vs. vehicle ([12]; 24 h post-dose): Yes

CC(=O)N1CCCC12CC=CCNC2=O (single isomer, unassigned) [GG-2, 1-acetyl-1,7-diazaspiro[4.6]undec-9-en-6-one]
EC50 [1]: < 1 nM | Microsomal (Human): percent of compound remaining [4]: 88% | Plasma (Human): percent of compound remaining [5]: 99% | Microsomal (Rat): percent of compound remaining [7]: 106% | AUC(0-t) ([8]; Sprague-Dawley, in vivo, iv): 2550 ng·h/mL | clearance ([8]; Sprague-Dawley, in vivo, iv): 13.1 mL/min/kg | half-life ([8]; Sprague-Dawley, in vivo, iv): 32.4 min | Cmax ([8]; Sprague-Dawley, in vivo, iv, read-out: Cmax): 3420 ng/mL | Vd ([8]; Sprague-Dawley, in vivo, iv, read-out: Vss): 0.58 L/kg | EC50 [9]: < 1 nM | Plasma (Rat): percent of compound remaining [10]: 101% | Tmax ([11]; Sprague-Dawley, po, per os, 10 mg/kg, plasma, read-out: Tmax): 15 min | AUC(0-t) ([11]; Sprague-Dawley, plasma, po, 10 mg/kg, per os): 19600 ng·h/mL | bioavailability ([11]; Sprague-Dawley, plasma, po, 10 mg/kg, per os 10 mg/kg): 100% | Cmax ([11]; Sprague-Dawley, plasma, po, 10 mg/kg, per os, 10 mg/kg, plasma, read-out: Cmax): 9200 ng/mL | CSF Cmax ([11]; per os, 10 mg/kg): 2271.94 ng/mL | Brain Cmax ([11]; per os, 10 mg/kg): 1689.69 ng/mL | % reduction in float time ([12]; 1 h post-dose): 4% | Significance vs. vehicle ([12]; 1 h post-dose): No

Reference: patent US20210047324A1 (Aptinyx Inc., priority 2018, published 2021)
